Experimental data as given in publication PMC4949556, “Subtle Structural Differences Trigger Inhibitory Activity of Propafenone Analogues at the Two Polyspecific ABC Transporters: P‐Glycoprotein (P‐gp) and Breast Cancer Resistance Protein (BCRP)” (Chemmedchem, 2016).

Experiments:
Format in all cases: cell-based
P-gp = target: T1, P-gp (Homo sapiens, UniProt P08183); assay: P-gp inhibition: steady-state daunorubicin accumulation in P-gp-overexpressing CCRF VCR1000 cells (flow cytometry); conditions: for Hill coefficient P-gp: Hill coefficient of IC50 measurement, mean ± SD of n experiments; for in vitro classification as P-gp inhibitor: IC50 below 10 μM considered active; for IC50: daunorubicin 3 μM, CCRF VCR1000 cells, mean±SD, at least n=3; for fold higher IC50 value for BCRP than for P-gp: ratio IC50 BCRP / IC50 P-gp
T1 construct: was obtained by stepwise selection of CCRF‐CEM in vincristine‐containing medium; endogenous in cells; host or cells: CCRF VCR1000 (vincristine-selected subline of CCRF-CEM human T-lymphoblasts; gift of V. Gekeler)
T1 sequence (P08183 whole entry): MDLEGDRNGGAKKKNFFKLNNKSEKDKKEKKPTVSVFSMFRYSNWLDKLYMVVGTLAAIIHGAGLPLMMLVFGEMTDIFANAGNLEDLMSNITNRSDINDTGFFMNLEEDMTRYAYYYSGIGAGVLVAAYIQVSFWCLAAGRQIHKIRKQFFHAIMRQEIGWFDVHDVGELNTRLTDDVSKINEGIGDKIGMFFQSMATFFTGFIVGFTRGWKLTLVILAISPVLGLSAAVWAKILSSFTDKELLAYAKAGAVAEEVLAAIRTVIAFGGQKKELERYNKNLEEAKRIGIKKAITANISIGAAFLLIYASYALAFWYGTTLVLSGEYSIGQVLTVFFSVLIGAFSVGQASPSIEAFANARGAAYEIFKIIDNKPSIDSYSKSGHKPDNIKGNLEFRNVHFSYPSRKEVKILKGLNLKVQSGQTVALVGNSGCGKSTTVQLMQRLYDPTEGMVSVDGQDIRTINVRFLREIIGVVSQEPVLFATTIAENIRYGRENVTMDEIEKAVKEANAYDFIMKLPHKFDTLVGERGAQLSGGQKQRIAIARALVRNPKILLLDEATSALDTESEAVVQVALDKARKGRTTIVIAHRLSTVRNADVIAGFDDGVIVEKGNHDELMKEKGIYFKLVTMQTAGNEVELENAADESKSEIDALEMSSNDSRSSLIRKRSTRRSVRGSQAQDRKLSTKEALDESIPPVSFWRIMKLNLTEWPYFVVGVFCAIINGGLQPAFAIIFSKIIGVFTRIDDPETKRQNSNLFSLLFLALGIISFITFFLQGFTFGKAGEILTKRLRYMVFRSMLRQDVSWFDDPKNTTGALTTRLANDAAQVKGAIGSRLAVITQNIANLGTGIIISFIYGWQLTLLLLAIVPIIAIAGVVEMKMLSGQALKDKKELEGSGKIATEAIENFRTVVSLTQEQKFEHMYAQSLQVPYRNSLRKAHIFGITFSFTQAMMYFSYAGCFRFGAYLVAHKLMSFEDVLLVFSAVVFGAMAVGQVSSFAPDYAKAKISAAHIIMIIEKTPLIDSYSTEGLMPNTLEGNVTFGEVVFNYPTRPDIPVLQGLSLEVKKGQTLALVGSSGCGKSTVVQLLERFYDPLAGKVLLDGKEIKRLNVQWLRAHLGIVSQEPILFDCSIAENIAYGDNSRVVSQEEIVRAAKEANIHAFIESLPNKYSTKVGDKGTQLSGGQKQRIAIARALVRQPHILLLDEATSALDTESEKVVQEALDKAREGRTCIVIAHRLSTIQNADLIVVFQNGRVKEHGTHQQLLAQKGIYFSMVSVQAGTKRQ
Protocol: (§1) P‐gp and BCRP inhibitory activity was assessed by implementing an intracellular accumulation assay of daunorubicin or mitoxantrone in cells overexpressing P‐gp or BCRP, respectively. In a first run, the effect of compounds 5, 6, 10, 11, and 16 (Figure 2) at 100 μM final concentration was tested (Figure 3). All compounds showing an inhibitory effect of more than 50 % compared with full inhibition by the known inhibitors of P‐gp (verapamil) and BCRP (Ko143) were further processed, and IC50 values were determined (IC50 curves and Hill coefficients are available in Figure S1 and Table S3 in the Supporting Information). […] For P‐gp, nine compounds were classified as inhibitors (5 a, 5 b, 6 a, 10 a, 10 b, 11 b, 16 a, 16 b, 16 c).
(§2) Cell culture: The human myeloid leukemia PLB985 parental and stably expressing BCRP cell lines31 were kindly provided by B. Sarkadi (Institute of Enzymology, Research Centre for Natural Sciences, Budapest, Hungary) and K. Nemet (Creative Cell Ltd., Budapest, Hungary). Both cell lines were cultured in RPMI 1640 supplemented with 10 % FBS and 100 IU mL^−1 of penicillin and streptomycin. The human T‐lymphoblast cell line CCRF VCR1000, overexpressing P‐gp, was obtained by stepwise selection of CCRF‐CEM in vincristine‐containing medium32 and was kindly provided by V. Gekeler (Altana‐Pharma formerly Byk‐Gulden, Konstanz, Germany). CCRF VCR1000 cells were cultured in RPMI 1640 medium containing 20 % FBS and were treated regularly with vincristine (1 μg mL^−1) for about 72 h, followed by centrifugation (300 g, 5 min, RT) and resuspension in normal culture medium. All cell lines were maintained at 37 °C in an atmosphere containing 5 % CO2 with 95 % relative humidity.
(§3) Steady‐state accumulation experiments: For BCRP and P‐gp inhibition studies, the steady‐state accumulation of mitoxantrone (7 μM) and daunorubicin (3 μM), respectively, was performed as previously described.33 Briefly, cells were harvested, pelleted (300 g, 5 min, 4 °C), diluted to a concentration of 12×10^6 cells mL^−1 in HPMI (10 mM Hepes, 120 mM NaCl, 5 mM KCl, 0.4 mM MgCl2, 0.04 mM CaCl2, 10 mM glucose, 10 mM NaHCO3, 5 mM Na2HPO4, pH 7.4 with NaOH) and kept on ice for further processing. For each data point, the cell suspension (25 μL) was preincubated for 5 min at 37 °C with 2 % DMSO (25 μL) in HPMI alone (DMSO control) or containing different concentrations of test compound solutions. Thereafter, cells were preloaded with daunorubicin (50 μL) or mitoxantrone (50 μL) for 30 or 20 min at 37 °C, respectively, to reach a final concentration of 3 or 7 μM, respectively. […] Preloading was stopped by chilling cells on ice for 5 min followed by the addition of 400 μL ice‐cold PBS. Cells were pelleted (300 g, 5 min, 4 °C), the supernatant was discarded, and the cell pellet was resuspended in ice‐cold PBS (150 μL). Until measurement, cells were kept on ice and in the dark. Immediately before cell fluorescence measurement by flow cytometry (BD Accuri C6 and BD FACSCalibur, Becton Dickinson, San Jose, CA, USA; MACSQuant, MiltenyiBiotec GmbH, BergischGladbach, Germany), 50 μL of 4′,6‐diamidin‐2‐phenylindole solution (DAPI, 4 μg mL^−1 in PBS) was added to gate out dead cells. 100 μM verapamil and 1 μM Ko143 were used as positive controls for P‐gp and BCRP inhibition, respectively. […]

P-gp / BCRP = target: T2, P-gp / BCRP (Homo sapiens, UniProt Q9UNQ0); assay: BCRP inhibition: steady-state mitoxantrone accumulation in BCRP-expressing PLB985 cells (flow cytometry); conditions: human, pH 7.4, probe daunorubicin (3 µM) for P-gp; mitoxantrone (7 µM) for BCRP; IC50 P-gp / IC50 BCRP; read-out: selectivity index (SI) P-gp/BCRP
T2 construct: expressed in transfected cells; host or cells: PLB985 human myeloid leukemia cells stably expressing BCRP (gift of B. Sarkadi and K. Nemet, Budapest)
T2 sequence (Q9UNQ0 whole entry): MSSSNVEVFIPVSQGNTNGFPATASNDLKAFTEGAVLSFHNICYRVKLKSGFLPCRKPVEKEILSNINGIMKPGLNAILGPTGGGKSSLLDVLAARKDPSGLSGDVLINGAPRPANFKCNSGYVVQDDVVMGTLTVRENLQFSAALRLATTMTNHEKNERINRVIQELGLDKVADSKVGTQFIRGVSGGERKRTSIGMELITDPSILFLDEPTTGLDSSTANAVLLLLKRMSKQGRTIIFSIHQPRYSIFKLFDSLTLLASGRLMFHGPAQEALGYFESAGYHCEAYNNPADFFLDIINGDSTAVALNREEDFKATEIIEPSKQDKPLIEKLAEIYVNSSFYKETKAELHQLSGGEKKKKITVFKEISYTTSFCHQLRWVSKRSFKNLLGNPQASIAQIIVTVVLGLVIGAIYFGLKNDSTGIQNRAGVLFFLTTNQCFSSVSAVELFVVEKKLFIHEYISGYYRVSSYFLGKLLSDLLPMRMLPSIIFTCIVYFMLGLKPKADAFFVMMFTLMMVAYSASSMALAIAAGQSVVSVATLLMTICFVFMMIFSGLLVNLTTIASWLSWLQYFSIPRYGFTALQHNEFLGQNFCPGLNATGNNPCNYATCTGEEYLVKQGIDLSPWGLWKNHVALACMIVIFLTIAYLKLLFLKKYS
Protocol: as §1, §2, §3

BCRP = target: T3, BCRP (Homo sapiens, UniProt Q9UNQ0); assay: as above; conditions: for IC50: BCRP IC50, mitoxantrone 7 μM, PLB985 BCRP cells, mean±SD, at least n=3 (11 a n=2); for Hill coefficient BCRP: Hill coefficient of IC50 measurement, mean ± SD of n experiments; for in vitro classification as BCRP inhibitor: IC50 below 10 μM considered active
T3 construct: expressed in transfected cells; host or cells: PLB985 human myeloid leukemia cells stably expressing BCRP (gift of B. Sarkadi and K. Nemet, Budapest)
T3 sequence (Q9UNQ0 whole entry): as above
Protocol: as §1, §2, §3

| Compound | Hill coefficient P-gp (P-gp) | in vitro classification as P-gp inhibitor (P-gp) | IC50 (P-gp) [µM] | fold higher IC50 value for BCRP than for P-gp (P-gp) | selectivity ratio (P-gp / BCRP) | IC50 (BCRP) [µM] | Hill coefficient BCRP (BCRP) | in vitro classification as BCRP inhibitor (BCRP) | fold lower IC50 value for BCRP than for P-gp (BCRP; ratio IC50 P-gp / IC50 BCRP) [fold] | factor more active at P-gp than methoxy analogue 6 b (P-gp; P-gp, compared with 6 b) | fold more active at P-gp than analogue 11 a (P-gp; P-gp, compared with 11 a) |
| --- | --- | --- | --- | --- | --- | --- | --- | --- | --- | --- | --- |
| O=C(CCc1ccccc1)c1ccccc1OCC(O)CNC(=O)C1CCCN1 (centres unmarked) [Compound 5 a, N ‐(2‐hydroxy‐3‐(2‐(3‐phenylpropanoyl)phenoxy)propyl)pyrrolidine‐2‐carboxamide] | 1.3±0.2 | inhibitors | 2.1 ± 0.4 | more than fivefold | 0.13 | 16.1 | 1.4±0.3 | borderline activity | – | – | – |
| COc1ccc(C(=O)CCc2ccccc2)c(OCC(O)CN2CC(=O)N3CCCC3C2=O)c1 (centres unmarked) [Compound 6 b, 2‐(2‐Hydroxy‐3‐(5‐methoxy‐2‐(3‐phenylpropanoyl)phenoxy)propyl)‐hexahydropyrrolo[1,2‐a]pyrazine‐1,4‐dione] | 1.5±0.2 | borderline inhibitory activity | 11 ± 1 | – | 2.82 | 3.8 ± 0.6 | 1.1±0.2 | inhibitors | 2.9 | – | – |
| O=C(CCc1ccccc1)c1ccccc1OCC(O)CN1CC(=O)N2CCCC2C1=O (centres unmarked) [Compound 6 a, 2‐(2‐Hydroxy‐3‐(2‐(3‐phenylpropanoyl)phenoxy)propyl)‐hexahydropyrrolo[1,2‐a]pyrazine‐1,4‐dione] | 2.6±0.4 | inhibitors | 1.6 ± 0.6 | more than 2.6 fold | 0.27 | 5.8 ± 1 | 0.9±0.1 | inhibitors | – | 7 | tenfold |
